Experimental data reported in patent US12410152B2, “Oxazole and thioazole-type cullin ring ubiquitin ligase compounds and uses thereof” (Proxygen GmbH, priority 2019, dated 2025).

What was measured:
Assay type in all cases: cell-based
[1] = test system: UBE2M mutant KBM7 cells; assay: cells
Procedure: KBM7 cells with the specified genetic backgrounds were grown in IMDM supplemented with 10% FBS and 1% penicillin/streptomycin (pen/strep). AsPC1, HCT116, NCI-H446 and 293T cells were grown in DMEM 10% FBS and 1% pen/strep. MV4; 11, Jurkat and Be (2) C cells were grown in RPMI 10% FBS 1% pen/strep. KBM7, AsPC1 and HCT116 cells expressing Cas9 were generated using the plasmid Lenti_Cas9_Blasti (Addgene #52962). The lentiviral plasmid lentiGuide-Puro (Addgene #52963) was used to express sgRNAs against the genes UBE2M (in KBM7-Cas9, AsPC1-Cas9 and HCT116-Cas9 cells), UBE2G1 (in KBM7-Cas9 cells) and […] (in KBM7-Cas9 cells). The lentiviral plasmid lentiGuide-Puro-IRES-mCherry (modified from Addgene #52963) was used to express sgRNAs against CUL4A (in KBM7-Cas9 cells). The lentiviral plasmid pLenti-PGK-Hygro-DEST-UBE2M was generated by Gateway cloning (empty destination vector Addgene #19066), and used to generate UBE2M^resc KBM7 cells. […]
Following this observation, it was rationalized that novel small molecule degraders can be identified in an unbiased manner, simply by searching for compounds that lose activity in the absence of UBE2M. 2000 small molecules, mostly of unknown function/target, were tested for their antiproliferative effects in human leukemia cells (KBM7). These cells were either transduced with a control sgRNA (KBM7WT), or with an sgRNA targeting UBE2M, leading to a hypomorph (deletion of six amino acids) with a functional impairment (UBE2Mmut).
Finally, a total of structurally similar analogs was tested to unravel structure-activity relationship of the identified molecules. To that end, their anti-cancer activity was assayed in WT cells, as well as KBM7 cells deficient in genes identified in the genome-wide CRISPR screens (UBE2M, CUL4B, UBE2G1). Moreover, the compounds were also tested in AsPC1 pancreatic cancer cells (WT or UBE2Mmut), MV4; 11 and Jurkat leukemia cells, Be (2) C neuroblastoma cells, and NCI-H446 lung cancer cells (Table 3 at the end of this document)
KBM7^WT, mutant KBM7 clones (UBE2M^mut, UBE2M^resc, UBE2G1^mut CUL4A^mut, CUL4B^mut), and 3-day doxycycline pretreated KBM7^iCas9_sgDDB1 cells were seeded at a cell density of 50,000 cells/mL in 96-well plates with DMSO or drug, in triplicates. Drugs used: IC020772.1/IC020772.1X, IC021313.2/IC021313.2X, T6938051/T6938051X or THZ531. Cells were treated for 3 days, after which cell viability was assessed according to manufacturer's protocol (CellTiter Glo, Promega G7570). Survival curves and EC50 values were calculated by best-fit analysis of the log 10 drug concentration to fold change of drug-treated cells over DMSO-treated cells. All survival assays included technical triplicates per sample, per experiment.

[2] = biological target: T1, CDK12/13 (Homo sapiens, UniProt Q9NYV4); assay: CDK12/13 destabilization (expression proteomics and Western blot)
T1 construct: endogenous in cells; host or cells: KBM7 cells
Procedure: (§1) The hypomorphic phenotype of the mutated UBE2M allele in KBM7 cells (KBM7 UBE2M^mut cells) was assessed. In this regard, CRISPR/Cas9-induced mutation of UBE2M inactivated CRL activity including CRL4^CRBN and CRL2^VHL. […] Additionally, CCNK destabilization by all three compounds was validated via time-resolved immunoblots wherein CCNK degradation was evident after two hours (FIG. 19c).
(§2) PBS-washed cell pellets were lysed in 50 mM Tris pH 7.9, 8M Urea and 1% CHAPS and incubated with shaking at 4° C. for at least 30 min. 20 μg of supernatants were run and transferred for detection. Antibodies used: CUL1 (Santa Cruz Biotechnology, sc-1276), CUL2 (Sigma-Aldrich, SAB2501565-100), CUL3 (Cell Signaling Technology, 2759), CUL4A (Cell Signaling Technology, 2699S), CUL4B (Proteintech, 12916-1-AP), CUL5 (Santa Cruz Biotechnology, sc-373822), UBE2M (Santa Cruz Biotechnology, sc-390064), DDB1 (Cell Signaling Technology, 5428S), CCNK (Bethyl, A301-939A), CDK12 (Cell Signaling Technology, 11973S), CDK13 (Bethyl, A301-458A), RBM39 (1:500, Santa Cruz Biotechnology sc-376531), V5 (Cell Signaling Technology, 13202), Ubiquityl-Histone H2A (K119) (Cell Signaling, 8240-20). ACTIN (Sigma-Aldrich, A5441), VINCUL1N (Santa Cruz Biotechnology, sc-25336). Secondary antibodies anti-mouse/rabbit/goat (Jackson ImmunoResearch 115-035-003, 111-035-003 and 705-035-003).
(§3) Comparison of overall proteome-wide changes in KBM7 cells treated with IC020772.1 (2.5 μM), IC021313.2 (7 μM) or T6938051 (3.5 μM) for 5 h and 12h, using quantitative proteomics based on isobaric tagging.

[3] = biological target: T2, CDK12/13 (Homo sapiens, UniProt Q14004); assay: as above; settings: expression proteomics, drug vs DMSO; Table 4, log2FC < −0.3
T2 construct: endogenous in cells; host or cells: KBM7 cells
Procedure: as §1, §2, §3

T1 sequence (Q9NYV4 whole entry): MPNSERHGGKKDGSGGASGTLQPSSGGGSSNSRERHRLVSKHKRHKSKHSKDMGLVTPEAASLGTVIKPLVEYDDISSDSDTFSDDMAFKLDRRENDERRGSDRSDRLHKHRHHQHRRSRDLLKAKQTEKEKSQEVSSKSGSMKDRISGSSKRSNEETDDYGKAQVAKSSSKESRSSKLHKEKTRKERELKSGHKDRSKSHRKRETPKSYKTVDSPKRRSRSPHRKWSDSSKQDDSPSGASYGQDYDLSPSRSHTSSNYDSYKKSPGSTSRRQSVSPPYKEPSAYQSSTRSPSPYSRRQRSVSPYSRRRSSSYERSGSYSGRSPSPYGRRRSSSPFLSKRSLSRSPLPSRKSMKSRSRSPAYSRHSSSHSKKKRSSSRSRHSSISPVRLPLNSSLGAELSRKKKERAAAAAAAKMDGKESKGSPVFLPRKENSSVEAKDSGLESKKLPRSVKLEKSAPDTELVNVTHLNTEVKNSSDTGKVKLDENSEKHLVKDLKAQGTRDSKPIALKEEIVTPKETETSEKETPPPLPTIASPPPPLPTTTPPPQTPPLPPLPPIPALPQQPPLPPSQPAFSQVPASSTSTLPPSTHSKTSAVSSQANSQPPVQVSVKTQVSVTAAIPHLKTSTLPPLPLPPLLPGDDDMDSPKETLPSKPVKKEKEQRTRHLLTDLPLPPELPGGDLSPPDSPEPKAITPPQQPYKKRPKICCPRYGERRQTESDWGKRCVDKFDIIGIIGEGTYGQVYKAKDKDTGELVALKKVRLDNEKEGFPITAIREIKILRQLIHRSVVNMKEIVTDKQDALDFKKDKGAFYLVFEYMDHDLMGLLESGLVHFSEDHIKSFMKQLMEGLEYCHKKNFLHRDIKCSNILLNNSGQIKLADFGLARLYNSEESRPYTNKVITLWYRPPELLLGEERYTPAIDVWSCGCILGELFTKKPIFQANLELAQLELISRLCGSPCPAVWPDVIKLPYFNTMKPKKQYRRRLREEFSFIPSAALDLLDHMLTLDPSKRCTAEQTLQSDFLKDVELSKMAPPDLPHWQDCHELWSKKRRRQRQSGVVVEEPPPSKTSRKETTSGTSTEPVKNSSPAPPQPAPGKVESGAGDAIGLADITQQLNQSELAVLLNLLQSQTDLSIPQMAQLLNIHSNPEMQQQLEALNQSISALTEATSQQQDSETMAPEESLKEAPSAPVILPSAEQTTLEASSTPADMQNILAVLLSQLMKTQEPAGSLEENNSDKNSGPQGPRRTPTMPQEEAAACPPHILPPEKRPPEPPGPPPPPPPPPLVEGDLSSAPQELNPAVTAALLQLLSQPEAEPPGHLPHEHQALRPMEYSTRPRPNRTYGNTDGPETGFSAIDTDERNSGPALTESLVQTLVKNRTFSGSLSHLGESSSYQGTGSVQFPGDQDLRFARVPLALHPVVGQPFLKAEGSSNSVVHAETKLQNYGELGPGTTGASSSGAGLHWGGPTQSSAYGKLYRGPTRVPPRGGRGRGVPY
T1 sequence (O75909 whole entry partner): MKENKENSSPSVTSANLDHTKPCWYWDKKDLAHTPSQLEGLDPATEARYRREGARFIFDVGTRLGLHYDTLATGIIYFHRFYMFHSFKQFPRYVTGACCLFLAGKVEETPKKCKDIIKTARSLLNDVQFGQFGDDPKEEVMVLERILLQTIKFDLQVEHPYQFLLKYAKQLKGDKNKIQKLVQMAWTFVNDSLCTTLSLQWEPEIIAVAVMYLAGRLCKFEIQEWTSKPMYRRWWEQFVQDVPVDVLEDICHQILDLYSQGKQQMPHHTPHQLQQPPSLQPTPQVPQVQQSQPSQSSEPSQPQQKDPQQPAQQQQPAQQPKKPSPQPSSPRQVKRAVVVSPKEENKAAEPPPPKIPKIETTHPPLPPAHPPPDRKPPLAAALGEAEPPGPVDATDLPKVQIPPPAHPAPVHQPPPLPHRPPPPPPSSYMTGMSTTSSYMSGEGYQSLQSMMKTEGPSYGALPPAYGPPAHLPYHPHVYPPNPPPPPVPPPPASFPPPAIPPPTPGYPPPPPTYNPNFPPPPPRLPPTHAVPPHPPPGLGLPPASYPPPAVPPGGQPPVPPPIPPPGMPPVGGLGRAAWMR
T1 sequence (Q16531 whole entry partner): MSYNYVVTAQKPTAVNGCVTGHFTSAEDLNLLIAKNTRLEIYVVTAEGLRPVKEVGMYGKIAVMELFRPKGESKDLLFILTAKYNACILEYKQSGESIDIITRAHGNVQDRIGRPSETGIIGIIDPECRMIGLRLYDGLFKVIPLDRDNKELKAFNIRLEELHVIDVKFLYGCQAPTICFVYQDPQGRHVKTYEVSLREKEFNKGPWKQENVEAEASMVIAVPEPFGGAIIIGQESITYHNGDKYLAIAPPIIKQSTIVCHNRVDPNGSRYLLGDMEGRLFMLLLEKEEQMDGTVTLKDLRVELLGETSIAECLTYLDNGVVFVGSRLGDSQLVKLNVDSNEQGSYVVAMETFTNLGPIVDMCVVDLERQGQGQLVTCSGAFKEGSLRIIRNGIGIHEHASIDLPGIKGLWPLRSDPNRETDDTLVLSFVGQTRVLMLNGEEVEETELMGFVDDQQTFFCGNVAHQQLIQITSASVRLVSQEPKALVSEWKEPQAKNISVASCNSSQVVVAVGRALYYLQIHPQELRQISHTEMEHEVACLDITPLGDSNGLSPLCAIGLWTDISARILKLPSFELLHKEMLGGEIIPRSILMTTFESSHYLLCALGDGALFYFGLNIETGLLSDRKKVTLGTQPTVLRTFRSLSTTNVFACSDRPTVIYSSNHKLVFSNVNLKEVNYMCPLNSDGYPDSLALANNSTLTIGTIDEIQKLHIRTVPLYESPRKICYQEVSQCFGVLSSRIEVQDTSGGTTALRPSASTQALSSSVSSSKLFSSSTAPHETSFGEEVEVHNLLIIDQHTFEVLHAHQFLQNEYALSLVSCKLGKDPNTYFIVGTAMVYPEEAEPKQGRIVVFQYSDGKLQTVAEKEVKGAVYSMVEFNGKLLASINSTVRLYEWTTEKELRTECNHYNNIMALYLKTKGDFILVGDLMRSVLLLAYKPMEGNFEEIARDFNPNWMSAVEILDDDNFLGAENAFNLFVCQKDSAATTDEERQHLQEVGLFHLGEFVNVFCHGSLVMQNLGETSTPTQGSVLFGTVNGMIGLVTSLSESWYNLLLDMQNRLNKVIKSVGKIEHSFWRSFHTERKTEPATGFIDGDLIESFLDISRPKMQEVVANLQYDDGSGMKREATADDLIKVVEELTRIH
T2 sequence (O75909 whole entry): as the sequence (O75909 whole entry partner) above
T2 sequence (Q16531 whole entry, further chain): as the sequence (Q16531 whole entry partner) above
T2 sequence (Q14004 other isoform, or with tags, fused parts or gaps): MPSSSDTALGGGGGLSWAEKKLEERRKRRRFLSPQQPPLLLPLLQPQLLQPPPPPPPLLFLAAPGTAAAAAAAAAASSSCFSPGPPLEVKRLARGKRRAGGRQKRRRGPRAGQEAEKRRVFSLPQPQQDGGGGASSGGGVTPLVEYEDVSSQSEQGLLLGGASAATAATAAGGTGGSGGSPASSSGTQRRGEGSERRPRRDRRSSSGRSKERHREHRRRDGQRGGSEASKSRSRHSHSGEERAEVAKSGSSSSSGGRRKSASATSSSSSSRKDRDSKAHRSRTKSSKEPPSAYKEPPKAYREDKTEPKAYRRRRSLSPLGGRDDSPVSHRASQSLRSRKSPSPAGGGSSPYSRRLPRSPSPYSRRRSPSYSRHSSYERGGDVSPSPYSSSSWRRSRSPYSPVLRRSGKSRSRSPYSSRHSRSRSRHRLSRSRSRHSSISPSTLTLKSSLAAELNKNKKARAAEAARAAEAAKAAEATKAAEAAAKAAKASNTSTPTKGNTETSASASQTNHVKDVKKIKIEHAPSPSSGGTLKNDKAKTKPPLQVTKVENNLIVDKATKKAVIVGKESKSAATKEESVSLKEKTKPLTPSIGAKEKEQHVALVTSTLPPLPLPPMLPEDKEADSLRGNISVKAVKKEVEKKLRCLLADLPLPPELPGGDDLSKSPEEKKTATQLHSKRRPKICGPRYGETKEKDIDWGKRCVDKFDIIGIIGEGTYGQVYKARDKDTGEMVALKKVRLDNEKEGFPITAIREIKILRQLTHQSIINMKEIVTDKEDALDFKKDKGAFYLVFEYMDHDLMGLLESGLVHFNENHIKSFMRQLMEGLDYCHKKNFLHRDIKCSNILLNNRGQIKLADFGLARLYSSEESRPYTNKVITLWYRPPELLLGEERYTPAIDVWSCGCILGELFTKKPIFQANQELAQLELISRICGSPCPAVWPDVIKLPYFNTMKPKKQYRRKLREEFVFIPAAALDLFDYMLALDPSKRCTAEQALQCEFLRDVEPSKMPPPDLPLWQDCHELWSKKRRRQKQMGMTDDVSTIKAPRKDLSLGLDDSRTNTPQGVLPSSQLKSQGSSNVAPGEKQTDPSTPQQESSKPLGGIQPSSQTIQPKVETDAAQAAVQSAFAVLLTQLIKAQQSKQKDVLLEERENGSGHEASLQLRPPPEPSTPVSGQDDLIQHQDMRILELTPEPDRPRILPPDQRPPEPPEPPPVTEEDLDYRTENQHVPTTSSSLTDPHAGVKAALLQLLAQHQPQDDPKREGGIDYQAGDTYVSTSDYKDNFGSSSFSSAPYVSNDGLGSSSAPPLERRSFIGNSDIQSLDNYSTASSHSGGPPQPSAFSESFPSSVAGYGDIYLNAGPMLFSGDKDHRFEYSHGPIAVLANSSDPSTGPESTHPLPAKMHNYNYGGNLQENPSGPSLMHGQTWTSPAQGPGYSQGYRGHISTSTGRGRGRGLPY

## Cc1ccc(C(=O)N2CSCC2C(=O)N=c2[nH]cc(C)s2)o1 (stereo not drawn) [Compound T6938051]
[1]
  CC50: 7.04 µM

## O=C(CSc1nnc2c(n1)[nH]c1ccccc12)Nc1ccc(Cl)cn1 [IC020772.1]
[2]; CDK12 (Q9NYV4-1)
  log2FC (IC020772.1/DMSO): −1.171
[1]
  CC50: 4.15 µM

## O=C(CSc1nc2ccccc2[nH]1)Nc1ccc(Cl)cn1 [IC021313.2]
[3]
  logFC (IC021313.2/DMSO), CDK13 (Q14004-2): −0.6574
[2]; expression proteomics, drug vs DMSO, Table 4, log2FC < −0.3
  logFC (IC021313.2/DMSO), CDK12 (Q9NYV4-1): −0.897
[1]
  CC50: 10.7 µM
